# Experiments:
# [1] = molecular target: P2X purinoceptor 6 (Rattus norvegicus, UniProt P51579); experiment: Antagonist activity against recombinant rat P2X purinoceptor 6 (P2X6 ); assay type: functional
# [2] = molecular target: T1, P2X purinoceptor 3 (Homo sapiens, UniProt P56373); experiment: Antagonist activity against recombinant human P2X purinoceptor 3 (P2X3 ); assay type: functional
# T1 sequence (P56373 whole entry): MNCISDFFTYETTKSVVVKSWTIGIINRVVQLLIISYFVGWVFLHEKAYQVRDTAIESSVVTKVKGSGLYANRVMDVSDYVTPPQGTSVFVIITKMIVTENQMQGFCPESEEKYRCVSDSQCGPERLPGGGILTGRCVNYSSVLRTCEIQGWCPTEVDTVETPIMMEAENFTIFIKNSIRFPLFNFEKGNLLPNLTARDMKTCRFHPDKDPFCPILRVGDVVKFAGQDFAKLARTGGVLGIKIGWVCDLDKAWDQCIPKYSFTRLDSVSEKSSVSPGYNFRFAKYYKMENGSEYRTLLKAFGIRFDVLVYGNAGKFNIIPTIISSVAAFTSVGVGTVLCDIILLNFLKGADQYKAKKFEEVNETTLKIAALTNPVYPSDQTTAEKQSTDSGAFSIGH
# [3] = molecular target: T2, P2X purinoceptor 2 (Rattus norvegicus, UniProt P49653); experiment: Antagonist activity against recombinant rat receptor P2X purinoceptor 2 (P2X2) at 10 uM, expressed in Xenopus oocytes; assay type: functional, cell-based, Oocyte
# T2 sequence (P49653 whole entry): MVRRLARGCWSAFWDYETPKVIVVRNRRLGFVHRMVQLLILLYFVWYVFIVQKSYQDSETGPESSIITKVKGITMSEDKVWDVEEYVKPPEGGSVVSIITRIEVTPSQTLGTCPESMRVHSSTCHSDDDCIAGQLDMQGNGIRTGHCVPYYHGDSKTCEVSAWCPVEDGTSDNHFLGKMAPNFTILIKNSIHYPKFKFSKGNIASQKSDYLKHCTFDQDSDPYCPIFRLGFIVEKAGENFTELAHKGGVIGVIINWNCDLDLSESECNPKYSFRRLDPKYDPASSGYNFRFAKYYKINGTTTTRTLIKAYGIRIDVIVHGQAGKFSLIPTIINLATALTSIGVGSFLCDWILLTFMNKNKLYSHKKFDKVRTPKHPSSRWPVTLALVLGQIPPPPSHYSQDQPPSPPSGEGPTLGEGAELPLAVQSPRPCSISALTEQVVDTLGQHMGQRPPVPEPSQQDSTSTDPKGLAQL
# [4] = molecular target: P2Y purinoceptor 12 (Rattus norvegicus, UniProt Q9EPX4); experiment: Antagonist activity against phospholipase C coupled rat P2Y purinoceptor 12 (P2Y12); assay type: functional
# [5] = molecular target: T3, P2Y purinoceptor 11 (Homo sapiens, UniProt Q96G91); experiment: Agonist activity against phospholipase C coupled human P2Y purinoceptor 11 (P2Y11); assay type: functional
# T3 sequence (Q96G91 whole entry): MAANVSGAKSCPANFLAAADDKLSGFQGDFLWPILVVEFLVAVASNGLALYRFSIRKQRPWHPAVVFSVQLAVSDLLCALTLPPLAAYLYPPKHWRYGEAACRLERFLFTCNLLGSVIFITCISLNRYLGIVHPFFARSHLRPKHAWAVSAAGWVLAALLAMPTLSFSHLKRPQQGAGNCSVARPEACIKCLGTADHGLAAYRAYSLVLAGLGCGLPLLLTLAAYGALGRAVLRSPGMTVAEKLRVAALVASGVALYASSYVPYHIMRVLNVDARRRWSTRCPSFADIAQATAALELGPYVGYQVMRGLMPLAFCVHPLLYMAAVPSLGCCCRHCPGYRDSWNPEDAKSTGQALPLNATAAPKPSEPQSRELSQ
# [6] = molecular target: T4, P2X purinoceptor 1 (Homo sapiens, UniProt P51575); experiment: Antagonist activity against recombinant human P2X purinoceptor 1 (P2X1 ); assay type: functional
# T4 sequence (P51575 whole entry): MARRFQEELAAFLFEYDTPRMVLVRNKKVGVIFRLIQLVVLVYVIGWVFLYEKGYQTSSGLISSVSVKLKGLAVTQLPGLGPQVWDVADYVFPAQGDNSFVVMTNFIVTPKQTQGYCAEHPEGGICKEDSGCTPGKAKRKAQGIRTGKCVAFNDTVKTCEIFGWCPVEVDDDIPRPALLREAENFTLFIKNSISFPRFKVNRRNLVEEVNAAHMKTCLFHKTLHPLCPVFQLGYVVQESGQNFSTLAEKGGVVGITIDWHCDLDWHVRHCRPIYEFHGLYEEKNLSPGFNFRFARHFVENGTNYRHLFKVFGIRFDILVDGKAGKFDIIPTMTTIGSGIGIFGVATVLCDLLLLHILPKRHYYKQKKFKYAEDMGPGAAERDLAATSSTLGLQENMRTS
# [7] = molecular target: P2Y purinoceptor 6 (Homo sapiens, UniProt Q15077); experiment: The compound was evaluated for agonist activity against phospholipase C coupled recombinant human P2Y purinoceptor 6 (P2Y6); assay type: functional
# [8] = molecular target: T5, P2X purinoceptor 5 (Rattus norvegicus, UniProt P51578); experiment: Antagonist activity against recombinant rat P2X purinoceptor 5 (P2X5); assay type: functional
# T5 sequence (P51578 whole entry): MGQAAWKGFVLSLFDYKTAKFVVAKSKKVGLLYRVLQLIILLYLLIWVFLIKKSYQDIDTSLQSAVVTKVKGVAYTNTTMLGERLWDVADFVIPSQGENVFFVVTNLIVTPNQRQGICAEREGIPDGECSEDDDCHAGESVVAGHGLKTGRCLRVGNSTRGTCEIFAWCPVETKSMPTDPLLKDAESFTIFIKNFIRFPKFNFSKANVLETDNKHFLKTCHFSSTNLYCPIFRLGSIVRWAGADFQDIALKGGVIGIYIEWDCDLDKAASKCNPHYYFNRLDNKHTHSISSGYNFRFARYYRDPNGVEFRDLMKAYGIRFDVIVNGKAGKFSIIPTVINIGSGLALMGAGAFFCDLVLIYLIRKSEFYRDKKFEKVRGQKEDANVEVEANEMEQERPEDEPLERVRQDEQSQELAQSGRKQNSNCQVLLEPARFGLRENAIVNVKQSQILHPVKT
# [9] = molecular target: T6, P2X purinoceptor 4 (Homo sapiens, UniProt Q99571); experiment: Antagonist activity against recombinant human P2X purinoceptor 4 (P2X4); assay type: functional
# T6 sequence (Q99571 whole entry): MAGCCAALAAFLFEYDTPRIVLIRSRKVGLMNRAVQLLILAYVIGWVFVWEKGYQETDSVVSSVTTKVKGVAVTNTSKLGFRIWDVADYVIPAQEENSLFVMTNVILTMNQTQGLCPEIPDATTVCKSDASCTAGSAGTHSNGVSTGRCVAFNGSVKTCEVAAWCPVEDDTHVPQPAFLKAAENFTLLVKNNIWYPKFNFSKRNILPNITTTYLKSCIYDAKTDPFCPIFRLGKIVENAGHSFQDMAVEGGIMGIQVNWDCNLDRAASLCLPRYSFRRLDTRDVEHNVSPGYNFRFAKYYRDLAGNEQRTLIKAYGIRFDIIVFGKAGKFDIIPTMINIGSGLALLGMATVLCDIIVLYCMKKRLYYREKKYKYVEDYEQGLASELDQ
# [10] = molecular target: T7, P2X purinoceptor 4 (Rattus norvegicus, UniProt P51577); experiment: Antagonist activity against recombinant rat P2X purinoceptor 4 (P2X4) at 30 uM, expressed in Xenopus oocytes; assay type: functional, cell-based, Oocyte
# T7 sequence (P51577 whole entry): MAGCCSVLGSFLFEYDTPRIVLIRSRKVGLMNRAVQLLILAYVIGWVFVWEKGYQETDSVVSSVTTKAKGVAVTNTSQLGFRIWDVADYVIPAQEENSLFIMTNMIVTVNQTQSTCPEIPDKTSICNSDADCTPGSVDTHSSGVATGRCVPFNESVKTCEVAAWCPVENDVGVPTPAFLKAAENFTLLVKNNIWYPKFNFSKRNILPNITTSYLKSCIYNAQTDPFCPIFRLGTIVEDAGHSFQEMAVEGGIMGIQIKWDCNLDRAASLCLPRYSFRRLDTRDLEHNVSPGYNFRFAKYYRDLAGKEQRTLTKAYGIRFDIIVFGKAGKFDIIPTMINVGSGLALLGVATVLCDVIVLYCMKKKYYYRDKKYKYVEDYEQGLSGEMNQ
# [11] = molecular target: P2Y purinoceptor 2 (Homo sapiens, UniProt P41231); experiment: Evaluated for agonist activity against phospholipase C coupled recombinant human P2Y purinoceptor 2 (P2Y2); assay type: functional
# [12] = molecular target: P2Y purinoceptor 1 (Homo sapiens, UniProt P47900); experiment: Evaluated for agonist activity against phospholipase C coupled P2Y purinoceptor 1 (P2Y1) of human erythrocytes; assay type: functional
# [13] = molecular target: T8, P2X purinoceptor 1 (Rattus norvegicus, UniProt P47824); experiment: The compound was evaluated for antagonist activity against P2X purinoceptor 1 (P2X1) like receptor from rat vas deferens; assay type: functional
# T8 sequence (P47824 whole entry): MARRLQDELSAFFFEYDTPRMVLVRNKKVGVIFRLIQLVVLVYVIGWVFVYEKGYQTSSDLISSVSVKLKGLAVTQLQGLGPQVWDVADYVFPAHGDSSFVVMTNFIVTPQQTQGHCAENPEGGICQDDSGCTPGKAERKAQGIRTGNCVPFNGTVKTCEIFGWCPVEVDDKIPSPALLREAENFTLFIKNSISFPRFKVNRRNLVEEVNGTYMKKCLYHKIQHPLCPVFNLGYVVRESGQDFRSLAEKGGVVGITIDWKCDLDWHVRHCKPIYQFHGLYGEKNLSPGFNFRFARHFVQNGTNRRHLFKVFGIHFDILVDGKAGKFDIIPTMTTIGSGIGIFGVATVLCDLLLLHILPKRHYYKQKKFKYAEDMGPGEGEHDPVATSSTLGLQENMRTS
# [14] = molecular target: P2Y purinoceptor 4 (Homo sapiens, UniProt P51582); experiment: The compound was evaluated for antagonist activity against phospholipase C coupled recombinant human P2Y purinoceptor 4 (P2Y4); assay type: functional
# [15] = molecular target: P2Y purinoceptor 1 (Meleagris gallopavo, UniProt P49652); experiment: Evaluated for agonist activity against phospholipase C coupled P2Y purinoceptor 1 (P2Y1) of turkey erythrocytes; assay type: functional
# [16] = molecular target: T8, P2X purinoceptor 1; experiment: The compound was evaluated for antagonist activity against recombinant rat P2X purinoceptor 1 (P2X1) at 1 uM, expressed in Xenopus oocytes; assay type: functional, cell-based, Oocyte
# [17] = molecular target: T7, P2X purinoceptor 4; experiment: Antagonist activity against recombinant rat P2X purinoceptor 4 (P2X4) at 3 uM, expressed in Xenopus oocytes; assay type: functional, cell-based, Oocyte
# P2Y purinoceptor 12, sequence (Q9EPX4 whole entry): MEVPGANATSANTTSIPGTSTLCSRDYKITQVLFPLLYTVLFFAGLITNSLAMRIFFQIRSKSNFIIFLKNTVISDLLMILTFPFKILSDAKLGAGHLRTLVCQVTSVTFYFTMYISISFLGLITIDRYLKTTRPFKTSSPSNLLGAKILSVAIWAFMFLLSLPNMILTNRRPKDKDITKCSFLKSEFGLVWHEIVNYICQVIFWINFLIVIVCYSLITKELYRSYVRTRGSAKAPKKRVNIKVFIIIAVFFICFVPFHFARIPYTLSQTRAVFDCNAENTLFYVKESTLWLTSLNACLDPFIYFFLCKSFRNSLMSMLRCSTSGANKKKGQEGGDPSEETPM
# P2Y purinoceptor 6, sequence (Q15077 whole entry): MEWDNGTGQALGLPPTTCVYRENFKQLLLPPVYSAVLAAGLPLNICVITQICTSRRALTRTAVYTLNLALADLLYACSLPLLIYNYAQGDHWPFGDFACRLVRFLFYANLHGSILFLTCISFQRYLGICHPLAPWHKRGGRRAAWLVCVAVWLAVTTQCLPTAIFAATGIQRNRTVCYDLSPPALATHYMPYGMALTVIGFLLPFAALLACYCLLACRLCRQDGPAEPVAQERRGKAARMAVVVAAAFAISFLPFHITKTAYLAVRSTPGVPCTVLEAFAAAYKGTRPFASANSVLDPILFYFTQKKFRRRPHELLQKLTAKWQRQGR
# P2Y purinoceptor 1 (Meleagris gallopavo, UniProt P49652), sequence (P49652 whole entry): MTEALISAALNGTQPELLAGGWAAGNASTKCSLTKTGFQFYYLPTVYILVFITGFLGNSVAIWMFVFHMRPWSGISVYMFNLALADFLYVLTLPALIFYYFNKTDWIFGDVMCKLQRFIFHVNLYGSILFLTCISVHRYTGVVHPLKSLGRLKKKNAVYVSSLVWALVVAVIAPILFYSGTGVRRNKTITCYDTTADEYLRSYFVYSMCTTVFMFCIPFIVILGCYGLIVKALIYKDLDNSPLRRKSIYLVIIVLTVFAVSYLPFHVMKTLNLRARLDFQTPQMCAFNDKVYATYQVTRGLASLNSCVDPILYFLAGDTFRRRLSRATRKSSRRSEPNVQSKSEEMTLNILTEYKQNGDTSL
# P2Y purinoceptor 2, sequence (P41231 whole entry): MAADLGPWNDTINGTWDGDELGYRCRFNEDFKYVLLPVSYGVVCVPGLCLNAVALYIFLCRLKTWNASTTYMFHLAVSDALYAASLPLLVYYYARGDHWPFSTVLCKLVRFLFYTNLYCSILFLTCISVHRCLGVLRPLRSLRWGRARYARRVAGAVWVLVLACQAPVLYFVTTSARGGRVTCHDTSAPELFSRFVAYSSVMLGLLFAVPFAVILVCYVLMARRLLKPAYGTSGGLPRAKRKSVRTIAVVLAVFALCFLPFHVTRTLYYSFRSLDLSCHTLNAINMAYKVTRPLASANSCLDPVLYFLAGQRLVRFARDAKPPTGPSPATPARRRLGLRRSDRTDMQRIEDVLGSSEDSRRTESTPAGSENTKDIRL
# P2Y purinoceptor 1 (Homo sapiens, UniProt P47900), sequence (P47900 whole entry): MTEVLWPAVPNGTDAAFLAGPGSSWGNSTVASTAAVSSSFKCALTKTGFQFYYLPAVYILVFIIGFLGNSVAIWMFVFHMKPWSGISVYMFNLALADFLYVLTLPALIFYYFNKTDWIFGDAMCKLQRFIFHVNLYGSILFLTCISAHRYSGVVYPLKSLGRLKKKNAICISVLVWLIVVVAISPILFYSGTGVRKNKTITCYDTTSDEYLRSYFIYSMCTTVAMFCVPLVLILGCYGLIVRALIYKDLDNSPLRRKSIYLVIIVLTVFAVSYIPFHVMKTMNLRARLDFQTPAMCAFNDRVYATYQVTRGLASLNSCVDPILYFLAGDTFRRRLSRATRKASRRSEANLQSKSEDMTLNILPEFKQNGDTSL
# P2Y purinoceptor 4, sequence (P51582 whole entry): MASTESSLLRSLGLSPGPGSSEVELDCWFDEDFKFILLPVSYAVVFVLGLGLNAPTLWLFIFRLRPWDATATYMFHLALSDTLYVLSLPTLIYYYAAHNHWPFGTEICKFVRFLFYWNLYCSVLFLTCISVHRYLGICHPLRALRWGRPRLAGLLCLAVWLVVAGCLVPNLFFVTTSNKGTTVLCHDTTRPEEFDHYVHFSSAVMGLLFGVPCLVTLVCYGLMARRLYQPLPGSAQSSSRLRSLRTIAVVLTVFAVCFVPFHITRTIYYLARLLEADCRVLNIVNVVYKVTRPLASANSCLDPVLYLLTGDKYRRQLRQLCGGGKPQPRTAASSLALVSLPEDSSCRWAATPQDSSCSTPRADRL
# P2X purinoceptor 6, sequence (P51579 whole entry): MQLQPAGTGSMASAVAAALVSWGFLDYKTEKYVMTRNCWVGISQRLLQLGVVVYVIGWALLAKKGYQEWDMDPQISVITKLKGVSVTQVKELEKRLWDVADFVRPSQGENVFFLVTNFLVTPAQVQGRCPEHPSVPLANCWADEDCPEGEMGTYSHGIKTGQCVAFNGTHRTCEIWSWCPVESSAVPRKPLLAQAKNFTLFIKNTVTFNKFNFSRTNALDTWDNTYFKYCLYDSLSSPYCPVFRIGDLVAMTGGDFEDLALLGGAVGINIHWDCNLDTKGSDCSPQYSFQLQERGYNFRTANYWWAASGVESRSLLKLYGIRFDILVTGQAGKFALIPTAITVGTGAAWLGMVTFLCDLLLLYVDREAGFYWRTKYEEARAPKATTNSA
structure (smiles),measurement,setting,value
CSc1nc(N)c2ncn([C@@H]3O[C@H](COP(=O)(O)OP(=O)(O)OP(=O)(O)O)[C@@H](O)[C@H]3O)c2n1,EC50,[1],0.6 µM
same,EC50,[2],0.35 µM
same,EC50,[3],1.5 µM
same,EC50,[4],0.0011 µM
same,EC50,[5],50 µM
same,EC50,[6],0.054 µM
same,EC50,[7],100 µM
same,EC50,[8],1 µM
same,EC50,[9],1 µM
same,EC50,[10],7.4 µM
Nc1ncnc2c1ncn2[C@@H]1O[C@H](COP(=O)(O)OP(=O)(O)S)[C@@H](O)[C@H]1O (stereo partly specified),EC50,[2],8.8 µM
same,EC50,[3],100 µM
same,EC50,[4],0.082 µM
same,EC50,[5],30 µM
same,EC50,[6],2.5 µM
same,EC50,[9],25 µM
O=c1ccn([C@@H]2O[C@H](COP(=O)(O)OP(=O)(O)O)[C@@H](O)[C@H]2O)c(=O)[nH]1 [URIDINE_DIPHOSPHATE],EC50,[11],> 100 µM
same,EC50,[7],0.3 µM
same,EC50,[12],> 100 µM
Cc1cc(C)c(Nc2cc(S(=O)(=O)O)c(N)c3c2C(=O)c2ccccc2C3=O)c(C)c1 [ACID BLUE 129],Kd,[13],> 100 µM
Nc1c(S(=O)(=O)O)cc(Nc2ccc(Nc3nc(Cl)nc(Cl)n3)c(S(=O)(=O)O)c2)c2c1C(=O)c1ccccc1C2=O,IC50,[13],8.8 µM
Nc1ncnc2c1ncn2[C@H]1C[C@H](O)[C@@H](COP(=O)(O)OP(=O)(O)OP(=O)(O)O)O1,EC50,[5],9 µM
CNc1nc(Cl)nc2c1ncn2[C@H]1C[C@@H](OP(=O)(O)O)[C@]2(COP(=O)(O)O)C[C@H]12,EC50,[4],> 100 µM
same,EC50,[14],> 100 µM
same,EC50,[5],> 100 µM
same,EC50,[15],0.052 µM
same,EC50,[11],> 100 µM
same,EC50,[7],> 100 µM
CCCCCCSc1nc(N)c2ncn([C@@H]3O[C@H](COP(=O)(O)O)[C@@H](O)[C@H]3O)c2n1,EC50,[16],0.84 µM
same,EC50,[15],0.0048 µM
same,EC50,[17],20 µM
